Experimental data from patent publication US10376484B2, “Combination of bezafibrate and of resveratrol or resveratrol derivatives for the treatment and prevention of diseases involving a mitochondrial energy dysfunction” (priority 2013, dated 2019).

Columns and labels:
Type in all cases: cell-based, human
[1] = tested on: fibroblasts of patients suffering from moderate VLCAD deficiency; test: Tritiated palmitate β-oxidation (FAO) in fibroblasts after 48 h treatment, VLCAD deficiency; details: for % increase in fatty acid oxidation (FAO): 48 h, vs carrier
Procedure: (§1) Cellular palmitate β-oxidation activity can be measured with any suitable technology known to persons skilled in the art. That can in particular be achieved by using tritiated palmitate complexed with BSA (bovine albumin serum), which is added to the cells to be tested. After incubation, the addition of trichloroacetic acid (TCA) in a supernatant sample makes it possible to precipitate unmetabolized complexes (BSA/tritiated palmitate), which are excluded by centrifugation. The measurement of tritium present in the supernatant after centrifugation and exclusion of unmetabolized complexes (BSA/tritiated palmitate) makes it possible to determine the amount of palmitate metabolized by the cells. A precise example of a protocol for implementing this process for measuring palmitate β-oxidation activity is described in Example 1. The fibroblasts are grown at 37° C. in complete Ham's F10 medium, i.e., supplemented with 12% fetal calf serum, 100 U/ml penicillin, and 0.1 mg/ml streptomycin, at a concentration of 70,000 cells per ml and per well in 24-well culture dishes. Twenty-four hours after seeding, stock solutions of RSV (0.2 M) and of BZ (0.4 M) are prepared in DMSO in order to prepare the various cell treatment media. For the treatment, the culture medium is discarded and replaced with 1 ml of complete Ham's F10 medium supplemented with one of the molecules of interest at one of the following concentrations, 75 μM RSV, or 400 μM BZ, or 20 μM RSV, or 30 μM RSV, […], […], or the culture medium is discarded and replaced with 1 ml of complete Ham's F10 medium supplemented with a combination of the two molecules of interest at the following concentrations: ([…]), or ([…]). Additional wells receive 1 ml of complete medium supplemented with the diluent of the molecules of interest only (<0.05% DMSO). Each of these treatment conditions is applied in triplicate (3 wells) for each patient, in each experiment. The 24-well dishes are then incubated at 37° C. for 48 hours. Thus, the cells of each individual studied are treated in all of the conditions listed, in parallel, for 48 hours, before the measurement of palmitate β-oxidation. The fatty acid used is palmitate labeled with tritium at positions 9 and 10 (^3H-Pal). A stock solution is prepared beforehand by mixing 100 μl of ^3H-Pal, 130 μl of 50 mM “cold” palmitate and 13 ml of 25 mg/ml BSA solution. A ^3H-Pal/BSA (bovine serum albumin) complex ensuring good palmitate solubilization is thus obtained (final palmitate concentration: 500 μM). The test of ^3H-palmitate oxidation is carried out on fibroblasts seeded in a 24-well plate. The culture medium is first discarded and the wells are rinsed three times with PBS. A 125 μM ^3H-Pal working solution is prepared, from the 500 μM stock solution, in PBS with Ca/Mg, supplemented with 1 mM carnitine. 200 μl of t[…]-Pal solution is introduced into each well and the plates are incubated at 37° C. for 2 hours. During this time, three counting vials are prepared for the measurement of specific radioactivity (RDA, in CPM/nmol of fatty acids) of the reaction medium. These vials contain 5 ml of scintillation fluid, 1.5 ml of distilled water, and 20 μl of ^3H-Pal/BSA solution. The scintillation fluid converts the radioactive energy of ^3H into light energy, which thus makes it possible to measure radioactivity, expressed in counts per minute (CPM), using a liquid scintillation counter. At the end of 2 hours of incubation, 200 μl is taken from each well and mixed with 200 μl of 10% trichloroacetic acid (TCA). This strong acid ensures the precipitation of unmetabolized BSA/AG complex. The tubes are then centrifuged at 3300 rpm for 10 minutes at 4° C. After centrifugation, 350 μl of supernatant is taken and mixed with […] of 6 M NaOH in order to neutralize the pH. The total volume, or 450 μl, is transferred to an ion-exchange resin column which retains the tritiated water. These columns are then transferred to scintillation vials. […]

[2] = tested on: fibroblasts of patients suffering from moderate CPT2 deficiency; test: Tritiated palmitate β-oxidation (FAO) in fibroblasts after 48 h treatment, CPT2 deficiency; details: for % increase in fatty acid oxidation (FAO): 48 h, vs carrier
Procedure: as §1

[3] = tested on: fibroblasts of patients suffering from moderate β-oxidation deficiency; test: Palmitate β-oxidation, correction of deficiency, pooled statements over deficiency types; details: for reduction in dose by a factor, combination vs compound alone: 30 μM RSV + 35 μM BZ vs 75 μM RSV / 400 μM BZ; for reduction in dose by a factor, combination vs compound alone / concentration at which the compound alone corrects the deficiency: VLCAD and CPT2 deficiency; for concentration at which the compound alone corrects the deficiency: compound used alone; for factor by which combining the two molecules decreases the dose needed to correct the deficiency: conclusion over three types of moderate β-oxidation enzyme deficiencies
Procedure: The fibroblasts are grown at 37° C. in complete Ham's F10 medium, i.e., supplemented with 12% fetal calf serum, 100 U/ml penicillin, and 0.1 mg/ml streptomycin, at a concentration of 70,000 cells per ml and per well in 24-well culture dishes. Twenty-four hours after seeding, stock solutions of RSV (0.2 M) and of BZ (0.4 M) are prepared in DMSO in order to prepare the various cell treatment media. For the treatment, the culture medium is discarded and replaced with 1 ml of complete Ham's F10 medium supplemented with one of the molecules of interest at one of the following concentrations, 75 μM RSV, or 400 μM BZ, or 20 μM RSV, or 30 μM RSV, or 25 μM RSV, or 35 μM RSV, or the culture medium is discarded and replaced with 1 ml of complete Ham's F10 medium supplemented with a combination of the two molecules of interest at the following concentrations: (20 μM RSV+[…]), or (30 μM RSV+[…]). Additional wells receive 1 ml of complete medium supplemented with the diluent of the molecules of interest only (<0.05% DMSO). Each of these treatment conditions is applied in triplicate (3 wells) for each patient, in each experiment. The 24-well dishes are then incubated at 37° C. for 48 hours. Thus, the cells of each individual studied are treated in all of the conditions listed, in parallel, for 48 hours, before the measurement of palmitate β-oxidation. The fatty acid used is palmitate labeled with tritium at positions 9 and 10 (^3H-Pal). A stock solution is prepared beforehand by mixing 100 μl of ^3H-Pal, 130 μl of 50 mM “cold” palmitate and 13 ml of 25 mg/ml BSA solution. A ^3H-Pal/BSA (bovine serum albumin) complex ensuring good palmitate solubilization is thus obtained (final palmitate concentration: 500 μM). The test of ^3H-palmitate oxidation is carried out on fibroblasts seeded in a 24-well plate. The culture medium is first discarded and the wells are rinsed three times with PBS. A 125 μM ^3H-Pal working solution is prepared, from the 500 μM stock solution, in PBS with Ca/Mg, supplemented with 1 mM carnitine. 200 μl of t[…]-Pal solution is introduced into each well and the plates are incubated at 37° C. for 2 hours. During this time, three counting vials are prepared for the measurement of specific radioactivity (RDA, in CPM/nmol of fatty acids) of the reaction medium. These vials contain 5 ml of scintillation fluid, 1.5 ml of distilled water, and 20 μl of ^3H-Pal/BSA solution. The scintillation fluid converts the radioactive energy of ^3H into light energy, which thus makes it possible to measure radioactivity, expressed in counts per minute (CPM), using a liquid scintillation counter. At the end of 2 hours of incubation, 200 μl is taken from each well and mixed with 200 μl of 10% trichloroacetic acid (TCA). This strong acid ensures the precipitation of unmetabolized BSA/AG complex. The tubes are then centrifuged at 3300 rpm for 10 minutes at 4° C. After centrifugation, 350 μl of supernatant is taken and mixed with […] of 6 M NaOH in order to neutralize the pH. The total volume, or 450 μl, is transferred to an ion-exchange resin column which retains the tritiated water. These columns are then transferred to scintillation vials. The tritiated water is then eluted with 1.7 ml of distilled water. 5 ml of scintillation fluid is added to the tritiated water and the vials are placed in the liquid scintillation counter.

Question: Which “% increase in fatty acid oxidation (FAO)” value ([1]; patient E3536, 400 μM BZ alone) does the source give for CC(C)(Oc1ccc(CCNC(=O)c2ccc(Cl)cc2)cc1)C(=O)O [BZ, 2-(4-(2-((4-chlorobenzoyl)amino)ethyl)phenoxy)-2-methylpropanoic acid] here?
Answer: 128%

Question: And the “% increase in fatty acid oxidation (FAO), Measured” value (“% increase … Measured” below) ([1]; patient E3536, Condition 1, 25 μM BZ alone)?
Answer: 7%

Question: What about the “% increase … Measured” value ([1]; patient E3536, Condition 2, 35 μM BZ alone) of the same compound?
Answer: 20%

Question: What about the “% increase in fatty acid oxidation (FAO)” value ([1]; patient beta, 400 μM BZ alone) of the same compound?
Answer: 83%

Question: And the “% increase … Measured” value ([1]; patient beta, Condition 1, 25 μM BZ alone)?
Answer: 1%

Question: And the “% increase … Measured” value ([1]; patient beta, Condition 2, 35 μM BZ alone)?
Answer: 8%

Question: And the “% increase in fatty acid oxidation (FAO)” value ([2]; patient DIA Ke, 400 μM BZ alone)?
Answer: 62%

Question: What about the “% increase … Measured” value ([2]; patient DIA Ke, Condition 1, 25 μM BZ alone) of the same compound?
Answer: 0%

Question: And the “% increase … Measured” value ([2]; patient DIA Ke, Condition 2, 35 μM BZ alone)?
Answer: 6%

Question: What about the “% increase in fatty acid oxidation (FAO)” value ([2]; patient alpha, 400 μM BZ alone) of the same compound?
Answer: 88%

Question: And the “% increase … Measured” value ([2]; patient alpha, Condition 1, 25 μM BZ alone)?
Answer: 0%

Question: What about the “% increase … Measured” value ([2]; patient alpha, Condition 2, 35 μM BZ alone) of the same compound?
Answer: 6%

Question: And the “reduction in dose by a factor, combination vs compound alone” value [3]?
Answer: 11.4

Question: What about the “concentration at which the compound alone corrects the deficiency” value [3] of the same compound?
Answer: 400 µM

Question: What about the “factor by which combining the two molecules decreases the dose needed to correct the deficiency” value [3] of the same compound?
Answer: 10

Question: With Oc1ccc(/C=C/c2cc(O)cc(O)c2)cc1 [RSV, 5-[(E)-2-(4-hydroxyphenyl)-ethenyl]benzene-1,3-diol] as the compound, how does the “% increase in fatty acid oxidation (FAO)” value ([1]; patient E3536, 75 μM RSV alone) read?
Answer: 145%

Question: What about the “% increase … Measured” value ([1]; patient E3536, Condition 1, 20 μM RSV alone) of the same compound?
Answer: 81%

Question: And the “% increase … Measured” value ([1]; patient E3536, Condition 2, 30 μM RSV alone)?
Answer: 106%

Question: And the “% increase in fatty acid oxidation (FAO)” value ([1]; patient beta, 75 μM RSV alone)?
Answer: 67%

Question: And the “% increase … Measured” value ([1]; patient beta, Condition 1, 20 μM RSV alone)?
Answer: 22%

Question: What about the “% increase … Measured” value ([1]; patient beta, Condition 2, 30 μM RSV alone) of the same compound?
Answer: 43%

Question: And the “% increase in fatty acid oxidation (FAO)” value ([2]; patient DIA Ke, 75 μM RSV alone)?
Answer: 44%

Question: What about the “% increase … Measured” value ([2]; patient DIA Ke, Condition 1, 20 μM RSV alone) of the same compound?
Answer: 49%

Question: What about the “% increase … Measured” value ([2]; patient DIA Ke, Condition 2, 30 μM RSV alone) of the same compound?
Answer: 66%

Question: And the “% increase in fatty acid oxidation (FAO)” value ([2]; patient alpha, 75 μM RSV alone)?
Answer: 100%

Question: What about the “% increase … Measured” value ([2]; patient alpha, Condition 1, 20 μM RSV alone) of the same compound?
Answer: 39%

Question: What about the “% increase … Measured” value ([2]; patient alpha, Condition 2, 30 μM RSV alone) of the same compound?
Answer: 48%

Question: What about the “reduction in dose by a factor, combination vs compound alone” value [3] of the same compound?
Answer: 2.5

Question: And the “concentration at which the compound alone corrects the deficiency” value [3]?
Answer: 75 µM

Question: And the “factor by which combining the two molecules decreases the dose needed to correct the deficiency” value [3]?
Answer: 2
